O=C1NC(=O)C2C3C=CC(C3)C12 (stereo not drawn)
solubility (mole fraction)
Settings	278.15 K	283.15 K	288.15 K	293.15 K	298.15 K	303.15 K	308.15 K	313.15 K	318.15 K	323.15 K
in 1,4-dioxane	–	–	0.0363	0.0402	0.0495	0.0576	0.0649	0.0738	0.0843	0.0962
in 2-ethoxyethanol	0.019	0.0224	0.0255	0.0295	0.0336	0.0384	0.0442	0.0481	0.0551	0.0627
in DMF	0.0637	0.0717	0.081	0.0915	0.107	0.116	0.129	0.145	0.159	0.177
in acetone	0.0128	0.0146	0.0171	0.0196	0.0225	0.0255	0.029	0.0328	0.0369	0.0414
in ethanol	0.00441	0.00512	0.00642	0.00789	0.00949	0.0115	0.0138	0.0165	0.0195	0.0233
in ethyl acetate	0.00821	0.00971	0.0112	0.0128	0.0146	0.0171	0.0195	0.0223	0.0255	0.029
in isopropyl acetate	0.0046	0.00565	0.00672	0.00781	0.00903	0.0105	0.0124	0.0143	0.0164	0.019
in methanol	0.00626	0.00766	0.00855	0.0104	0.0127	0.0157	0.0182	0.0219	0.026	0.0308
in methyl acetate	0.0113	0.0135	0.0159	0.0187	0.0223	0.0259	0.0303	0.0352	0.041	0.0474
in n-butyl acetate	0.00431	0.00523	0.00617	0.00718	0.00869	0.0103	0.0117	0.0135	0.0156	0.0178
in n-propyl acetate	0.00537	0.00631	0.00782	0.00907	0.0106	0.0124	0.0145	0.0168	0.0193	0.0221

Reference: BigSolDB 2.1
